Measurements published in patent US8933019B2, “Antiviral cell-penetrating peptides” (priority 2008, dated 2015).
Like-named read-outs stand apart in the source and are kept apart here. Bridge positions count the residues as written; N and C are the ends. Square brackets hold non-standard residues; d marks the D form. Peptide text beside a SMILES is read from it. S5 = C=CCCC[C@](C)(N)C(=O)O

Tests used:
Jurkat cells = assay: Cytotoxicity, LDH leakage, Jurkat cells; assay type: cell-based; conditions: 30 min, 2 hr and 4 hr of exposure
Experimental: (§1) Cytotoxicity was also evaluated in Jurkat cells using a Promega LDH leakage detection kit. Jurkat cells were plated at 10^4 cells/well in a volume of 200 μl. The test was performed after 30 min, 2 hr and 4 hr of exposure to the NYAD-201, NYAD-202 and NYAD-203 compounds.

[1] = Cytotoxicity, XTT method, PBMC; assay type: cell-based; conditions: human
Experimental: (§2) Cytotoxicity of peptides in MT-2 cells and PBMC was measured by the XTT [(sodium 3′-(1-(phenylamino)-carbonyl)-3,4-tetrazolium-bis(4-methoxy-6-nitro) bezenesulfonic acid hydrate)] method as previously described (Jiang et al., 2004). Briefly, for MT-2 cells, 100 μl of a peptide at graded concentrations was added to an equal volume of cells (1×10^5 cells/ml) in 96-well plates followed by incubation at 37° C. for 4 days, which ran parallel to the neutralization assay in MT-2 (except medium was added instead of virus). In the case of PBMC, 5×10^5 cells/ml were used and the cytotoxicity was measured after 7 days. After addition of XTT (PolySciences, Inc.), the soluble intracellular formazan was quantitated colorimetrically at 450 nm 4 hr later with a reference at 620 nm. The percent of cytotoxicity and the CC50 values were calculated as above (Table 2 and Table 3).

HIV-1 92UG029 = assay: Inhibition of primary HIV-1 isolate, p24 ELISA, PBMC; assay type: cell-based; conditions: subtype A, coreceptor X4, read-out: IC50 (μM ± SD), HIV-1 92UG029
Experimental: (§3) The inhibitory activity of peptides on infection by primary HIV-1 isolates was determined as previously described (Jiang et al., Antimicrob. Agents Chemother. 48:4349-4359, 2004). Peripheral blood mononuclear cells (PBMCs) were isolated from the blood of healthy donors at the New York Blood Center by standard density gradient centrifugation using Histopaque-1077 (Sigma-Aldrich). The cells were cultured at 37° C. for 2 hr. Nonadherent cells were collected and resuspended at 5×10^6 cells/ml RPMI-1640 medium containing 10% FBS, 5 μg/ml PHA, and 100 U/ml IL-2 (Sigma-Aldrich), followed by incubation at 37° C. for 3 days. The PHA-stimulated cells (5×10^4 cells/well) were infected with primary HIV-1 isolates at 500 TCID50 (0.01 MOI) in the absence or presence of peptide inhibitor at graded concentrations. Culture media were changed every 3 days and replaced with fresh media containing freshly prepared inhibitor. The supernatants were collected 7 days post-infection and tested for p24 antigen by ELISA (FIG. 6). The percent inhibition of p24 production, IC50 and IC90 values were calculated by the GraphPad Prism software (GraphPad Software Inc.).
(§4) NYAD-201, NYAD-202 and NYAD-203 were also tested against a set of primary HIV-1 isolates in PBMC representing mostly group M and one from group O with diverse coreceptor usage. […] The inhibitory activities of the peptides against this diverse range of primary isolates were similar, indicating its effectiveness against a wide range of HIV-1 isolates.

HIV-1 92US657 = assay: as above; assay type: cell-based; conditions: subtype B, coreceptor R5, read-out: IC50 (μM ± SD), HIV-1 92US657
Experimental: as §3, §4

HIV-1 93BR020 = assay: as above; assay type: cell-based; conditions: subtype F, coreceptor R5X4, read-out: IC50 (μM ± SD), HIV-1 93BR020
Experimental: as §3, §4

HIV-1 BCF02 = assay: as above; assay type: cell-based; conditions: (Group 0), coreceptor R5, read-out: IC50 (μM ± SD), HIV-1 BCF02
Experimental: as §3, §4

HIV-1 98CN009 = assay: as above; assay type: cell-based; conditions: subtype C, coreceptor R5, read-out: IC50 (μM ± SD), HIV-1 98CN009
Experimental: as §3, §4

HIV-1 IIIB = tested on: HIV-1 IIIB
Experimental: (§5) The inhibitory activity of NYAD-201, and related stapled peptides on infection by laboratory-adapted HIV-1 strains was determined as previously described (Jiang et al. J Exp. Med 174:1557-1563, 1991) with minor modifications. Azidothymidine (AZT) was used as a positive control in the infectivity assays. In brief, 1×10^4 MT-2 cells were infected with HIV-1 at 100 TCID50 (50% tissue culture infective dose) (0.01 MOI [multiplicity of infection]) in 200 μl RPMI 1640 medium containing 10% FBS in the presence or absence of peptides at graded concentrations overnight. The culture supernatants were then removed and fresh media containing freshly prepared test peptide were added. On the fourth day post-infection, 100 μl of culture supernatants were collected from each well, mixed with equal volume of 5% Triton X-100 and tested for p24 antigen by ELISA.
(§6) In addition, NYAD-201, NYAD-202 and NYAD-203 were also tested using several laboratory-adapted and primary isolates in MT-2 cells and PBMC (peripheral blood mononuclear cells), respectively.

HIV-1 MN = conditions: read-out: IC50 (μM ± SD), HIV-1 MN; laboratory strain, subtype B, MT-2, coreceptor X4
Experimental: as §5, §6

HIV-1 AZT-R = conditions: read-out: IC50 (μM ± SD), HIV-1 AZT-R; RT-resistant isolate, subtype B, MT-2, coreceptor X4
Experimental: as §5, §6

HIV-1RF/L-323-12-3 = conditions: read-out: IC50 (μM ± SD), HIV-1RF/L-323-12-3; PR-resistant isolate, subtype B, MT-2, coreceptor X4
Experimental: as §5, §6

HIV-1 SF2 = conditions: read-out: IC50 (μM ± SD), HIV-1 SF2; laboratory strain, subtype B, MT-2, coreceptor R5X4
Experimental: as §5, §6

HIV-1 RF = conditions: read-out: IC50 (μM ± SD), HIV-1 RF; laboratory strain, subtype B, MT-2, coreceptor X4
Experimental: as §5, §6

[2] = Solubility, observation in the Jurkat cytotoxicity test; assay type: physicochemical
Experimental: as §1

[3] = Cytotoxicity, XTT method, MT-2 cells; assay type: cell-based, human; conditions: human, read-out: CC50 (μM) ± SD, cytotoxicity in MT-2 cells
Experimental: as §2

MT-2 cells = assay: Cytotoxicity, XTT method, MT-2 cells; assay type: cell-based, human; conditions: 4 days
Experimental: as §2

In the case of CSCC[C@@H]1NC(=O)[C@H](Cc2c[nH]c3ccccc23)NC(=O)[C@@](C)(NC(=O)[C@H](CCCCN)NC(=O)[C@@H](NC(=O)[C@H](CCC(=O)O)NC(=O)[C@H](CCC(N)=O)NC(=O)[C@H](C)N)C(C)C)CCCC=CCCC[C@@](C)(C(=O)N[C@H](C(=O)N[C@@H](CC(C)C)C(=O)N[C@@H](CC(C)C)C(=O)N[C@H](C(=O)N[C@@H](C)C(N)=O)C(C)C)[C@@H](C)O)NC(=O)[C@H]([C@@H](C)O)NC1=O [NYAD-201, AQEVKXWMTXTLLVA] (H-AQEVK[S5]WMT[S5]TLLVA-NH2; staple 6-10), the “Cytotoxicity in Jurkat cells (LDH leakage)” value (Jurkat cells) is reported as “did not demonstrate toxicity”, the CC50 at 7 days [1] is reported as greater than 115 µM and the IC50 (HIV-1 92UG029) is reported as 7.88 ± 1.01 µM. The IC50 (HIV-1 92US657) was 6.72 ± 0.98 µM, the IC50 (HIV-1 93BR020) was 2.78 ± 0.57 µM and the IC50 (HIV-1 BCF02) was 15.8 ± 3.43 µM. The IC50 (HIV-1 98CN009) was 5.31 ± 0.83 µM, the IC50 (HIV-1 IIIB; read-out: IC50 (μM ± SD), HIV-1 IIIB, laboratory strain, subtype B, MT-2, coreceptor X4) was 4.29 ± 0.62 µM and the IC50 (HIV-1 IIIB; read-out: IC50 (μM) ± SD, antiviral activity against HIV-1 IIIB, MT-2 cells, p24 production, fourth day post-infection) was 4.29 ± 0.62 µM. It also gave an IC50 (HIV-1 MN) of 3.03 ± 0.61 µM, an IC50 (HIV-1 AZT-R) of 8 ± 1.27 µM and an IC50 (HIV-1RF/L-323-12-3) of 5.6 ± 0.5 µM. For the same molecule, the IC50 (HIV-1 SF2) was 5.06 ± 1.37 µM, the IC50 (HIV-1 RF) was 2.84 ± 0.63 µM and the Solubility [2] was “not very soluble”. The CC50 at 4 days [3] was greater than 115 µM and the CC50 (MT-2 cells) was greater than 115 µM.
